In patent publication US12622945B2, “Hard tissue therapeutics” (OrthoTrophix, Inc., priority 2020, dated 2026):
Entries after “also recorded” stand apart in the source; their conditions may differ. Where no end group is shown, it is not given here.

How the values were obtained:
[1] = system: subjects with bilateral knee osteoarthritis; assay: Multicenter, randomized double-blind, placebo-controlled clinical study in bilateral knee osteoarthritis; type: in vivo, human; conditions: IA injections
Procedure: No other doses of drug or placebo were administered.
MRI of both knees were obtained from these 93 subjects at baseline, 6 and/or 12 months. They were sent to the central readers of cartilage thickness and 3D bone shape, respectively. Both central readers were blinded to the treatment assignment and clinical data throughout their analysis process.
For the 3D bone shape analyses, its central reader first made a qualification review of all MRI images from the 93 subjects since they were obtained primarily for cartilage thickness measurement.
MRIs from the remaining 78 subjects (156 knees: 78 Index and 78 Control) were qualified for analysis of 3D shape of the knee joint bones (B-scores of femur, tibia, and patella).
If all clinical inclusion and exclusion criteria were met, MRIs of both knees were obtained and evaluated by a central reader to determine the ICRS grade (gICRS) of each knee as the final screening criterion. […]
Vital signs were also monitored after the injections.
Adverse events and concomitant medications were recorded.
All KOOS subscale scores, WOMAC Total score and subscale scores, MRI-based patello-femoral and tibiofemoral cartilage thickness, and MRI-based subchondral bone area and 3D bone shape were analyzed.
MRI images were provided to central readers for cartilage and subchondral bone measures, respectively. Central readers were blind as to treatment assignment. […]

[2] = in vivo

## TDLQERGDNDISPFSGDGQPFKD-NH2 (C-terminus assumed) [SEQ ID No: 10]
[1]
  adverse events: no severe adverse events that were related to the peptide; also recorded: mild or moderate, transient
  safety and tolerability: safe and well tolerated
[2]
  biological effects on cell types, tissues, or organs other than hard tissues: never demonstrated biological effects of the peptide on cell types, tissues, or organs other than cartilage, bone, and dentin
